Assay [1] is described as follows: (§1) Inhibition of nAChR-mediated twitch response in mouse hemidiaphragm.
The species named for assay [2] is Mus musculus. Described as §1.
The species entered for assay [3] is Mus musculus. In words: Inhibition of nAChR-mediated twitch response in mouse hemidiaphragm at IC90 in presence of neostigmine bromide.

Experimental findings from ChEMBL document CHEMBL2202984, “16-morpholino quaternary ammonium steroidal derivatives as neuromuscular blocking agents: synthesis, biological evaluation and in silico probe of ligand-receptor interaction” (Eur J Med Chem, 2012) are described below.

The source made the active and inactive calls. The rule behind the calls is not given here.

As a reminder, the IC50 is the concentration that gives 50% inhibition. Usually IC90 stands for the concentration at which the effect reaches the 90% level.

Compound `C[C@]12CC[C@H]([N+](C)(C)c3ccccc3)C[C@@H]1CC[C@@H]1[C@@H]2CC[C@]2(C)[C@@H](O)[C@@H]([N+]3(C)CCOCC3)C[C@@H]12` displayed a half-inhibitory concentration (IC50) in assay [1] of 16.2 µM.

The compound `CC(=O)O[C@H]1[C@@H]([N+]2(C)CCOCC2)C[C@H]2[C@@H]3CC[C@H]4C[C@@H]([N+](C)(C)C)CC[C@]4(C)[C@H]3CC[C@@]21C` registered an IC50 in assay [1] of 16.6 µM. This compound also registered an IC90 in assay [2] of 25 µM.

On to `C[C@]12CC[C@H]([N+](C)(C)C)C[C@@H]1CC[C@@H]1[C@@H]2CC[C@]2(C)[C@@H](O)[C@@H]([N+]3(C)CCOCC3)C[C@@H]12`, for which inhibition in assay [1] was half-maximal at 21.4 µM (IC50).

`CC(=O)O[C@H]1[C@@H]([N+]2(C)CCOCC2)C[C@H]2[C@@H]3CC[C@H]4C[C@@H]([N+]5(C)CCCCC5)CC[C@]4(C)[C@H]3CC[C@@]21C`: in assay [3], the inhibition entry is “inactive”. For the same compound, the IC50 in assay [1] was found to be 3.49 µM. Besides, the 90% effect level in assay [2] (IC90) was put at 5.46 µM.

The compound `CC(=O)O[C@H]1[C@@H]([N+]2(C)CCOCC2)C[C@H]2[C@@H]3CC[C@H]4C[C@@H]([N+](C)(C)c5ccccc5)CC[C@]4(C)[C@H]3CC[C@@]21C` registered an IC50 in assay [1] of 12.7 µM. In assay [2], this compound gave an IC90 of 18.2 µM.

In turn, `CC(=O)O[C@H]1[C@@H]([N+]2(C)CCOCC2)C[C@H]2[C@@H]3CC[C@H]4C[C@H]([N+](C)(C)C)CC[C@]4(C)[C@H]3CC[C@@]21C` yielded a half-maximal inhibitory concentration (IC50) in assay [1] of 17.4 µM.

Consider `CC(=O)O[C@H]1CC[C@@]2(C)[C@@H](CC[C@@H]3[C@@H]2CC[C@@]2(C)[C@H]3C[C@H]([N+]3(C)CCOCC3)[C@@H]2OC(C)=O)C1`, for which, in assay [1], inhibition was half-maximal at 19.8 µM (IC50). Besides, the IC90 in assay [2] was found to be 29.4 µM.

The compound `C[C@]12CC[C@H]([N+]3(C)CCCC3)C[C@@H]1CC[C@@H]1[C@@H]2CC[C@]2(C)[C@@H](O)[C@@H]([N+]3(C)CCOCC3)C[C@@H]12` had an IC50 in assay [1] of 27.6 µM.

In assay [1], `CC(=O)O[C@H]1[C@@H]([N+]2(C)CCOCC2)C[C@H]2[C@@H]3CC[C@H]4C[C@H]([N+]5(C)CCCC5)CC[C@]4(C)[C@H]3CC[C@@]21C` showed an IC50 of 18.6 µM.

The compound `CC(=O)O[C@H]1[C@@H]([N+]2(C)CCOCC2)C[C@H]2[C@@H]3CC[C@H]4C[C@H](N5CC[N+](C)(C)CC5)CC[C@]4(C)[C@H]3CC[C@@]21C` registered a half-inhibitory concentration (IC50) in assay [1] of 39.1 µM.

In assay [1], `CC(=O)O[C@H]1[C@@H]([N+]2(C)CCOCC2)C[C@H]2[C@@H]3CC[C@H]4C[C@@H]([N+]5(C)CCOCC5)CC[C@]4(C)[C@H]3CC[C@@]21C` returned an IC50 of 33.9 µM. Moreover, the IC90 in assay [2] is 50.7 µM.

Turning to `CC(=O)O[C@H]1[C@@H]([N+]2(C)CCOCC2)C[C@H]2[C@@H]3CC[C@H]4C[C@@H]([N+]5(C)CCCC5)CC[C@]4(C)[C@H]3CC[C@@]21C`, the midpoint of inhibition in assay [1], the IC50, lay at 10.7 µM. For the same compound, it took 15.7 µM to reach the 90% level in assay [2] (IC90).

The compound `CC(=O)O[C@H]1C[C@@H]2CC[C@@H]3[C@H](CC[C@@]4(C)[C@H]3C[C@H]([N+]3(C)CCCCC3)[C@@H]4OC(C)=O)[C@@]2(C)C[C@@H]1N1CCCCC1` [VECURONIUM BROMIDE] yielded an IC50 in assay [1] of 0.31 µM. Moreover, in assay [2], the concentration for an effect of 90% (IC90) stood at 0.44 µM.

For `C[C@]12CC[C@H]([N+]3(C)CCCCC3)C[C@@H]1CC[C@@H]1[C@@H]2CC[C@]2(C)[C@@H](O)[C@@H]([N+]3(C)CCOCC3)C[C@@H]12`, the IC50 in assay [1] turned out to be 13.6 µM.

Consider `CC(=O)O[C@H]1[C@@H]([N+]2(C)CCOCC2)C[C@H]2[C@@H]3CC[C@H]4C[C@@H]([N+](C)(C)Cc5ccccc5)CC[C@]4(C)[C@H]3CC[C@@]21C`, for which the inhibition result in assay [3] is “inactive”. In addition, the IC50 in assay [1] was 4.54 µM. In assay [2], this compound registered a concentration for an effect of 90% (IC90) of 6.38 µM.

On to `C[C@]12CC[C@H]([N+](C)(C)Cc3ccccc3)C[C@@H]1CC[C@@H]1[C@@H]2CC[C@]2(C)[C@@H](O)[C@@H]([N+]3(C)CCOCC3)C[C@@H]12`, for which the IC50 in assay [1] is 18.5 µM.

Compound `C[C@]12CC[C@H]([N+]3(C)CCOCC3)C[C@@H]1CC[C@@H]1[C@@H]2CC[C@]2(C)[C@@H](O)[C@@H]([N+]3(C)CCOCC3)C[C@@H]12` returned an IC50 in assay [1] of 38.9 µM.

In turn, `C[C@]12CC[C@H](N3CC[N+](C)(C)CC3)C[C@@H]1CC[C@@H]1[C@@H]2CC[C@]2(C)[C@@H](O)[C@@H]([N+]3(C)CCOCC3)C[C@@H]12` yielded an IC50 in assay [1] of 24.5 µM.

For the compound `C=CC[N+]1([C@H]2C[C@H]3[C@@H]4CC[C@H]5C[C@H](O)[C@@H](N6CCOCC6)C[C@]5(C)[C@H]4CC[C@]3(C)[C@H]2OC(C)=O)CCCC1` [ROCURONIUM BROMIDE], half-maximal inhibition in assay [1] (IC50) required 2.5 µM. This compound showed an IC90 in assay [2] of 3.53 µM.

In turn, `CC(=O)O[C@H]1[C@@H]([N+]2(C)CCOCC2)C[C@H]2[C@@H]3CC[C@H]4C[C@@H](N5CC[N+](C)(C)CC5)CC[C@]4(C)[C@H]3CC[C@@]21C` returned a half-maximal inhibitory concentration (IC50) in assay [1] of 13.1 µM. Besides, the 90% effect level in assay [2] (IC90) was put at 18.6 µM.
